According to PMC12590356, “Novel pyrrolo[2,1-a]isoquinoline aryl ketones attenuate carbon nanotube-induced acute lung injury through NF-κB pathway inhibition” (RSC Advances, 2025):
Entries after “also recorded” stand apart in the source; their conditions may differ.

Key:
TNF-α = TNF-α in BALF of ALI mice (ELISA); format: in vivo, C57BL/6 mice; details: SWCNT-induced ALI mice, 50 mg per kg dose
Method: To confirm the in vivo inhibitory effects of 3g and 3k, we examined the levels of pro-inflammatory cytokines in bronchoalveolar lavage fluid (BALF) from ALI mice.
(§1) Based on the results of the previous in vitro experiments, 3g and 3k were chosen for animal experiments. 3g was dissolved in 5% DMSO and 3k was dissolved in 0.5% sodium carboxymethyl cellulose (CMC-Na). Male C57BL/6 mice were randomly divided into four groups of ten animals each: CON, single-walled carbon nanotubes (SWCNT) model, 3k (50 mg kg^−1) + SWCNT, 3g (50 mg kg^−1) + SWCNT. The SWCNT model group was administered a one-time tracheal drip of 50 μL of SWCNT suspension containing 40 μg of SWCNT (approximately 1.86 mg per kg body weight) per mouse to model ALI. A blank tracheal drip of PBS was administered to the negative control. 3k + SWCNT and 3g + SWCNT groups were administered 3k or 3g of 50 mg per kg body weight once a day for 3d. The animals in the CON group received the same volume of 0.5% CMC-Na. The 1st dose was administered 1 h before modeling to avoid excessive damage to mice. The control and model groups were injected intraperitoneally with a blank solvent. […]
The collected bronchoalveolar lavage fluid (BALF) was centrifuged to obtain the supernatant. The concentrations of TNF-α and IL-6 in BALF were determined using ELISA. […]

[1] = CCK8 cell viability (cytotoxicity) assay; format: cell-based, murine; details: mouse, RAW264.7 cells, means ± SD (n = 3)
Method: The toxic effect of synthesized compounds was evaluated on RAW264.7 cells utilizing a CCK8 assay kit.
RAW264.7 cells were seeded in 96-well plates and incubated with various compounds, each at a uniform concentration of 50 μM, for 24 h. Following this incubation, CCK8 was added to the 96-well plates and incubated at 37 °C for 1 h. The control group was cultivated solely in fresh medium. The absorbance at 450 nm was quantified using an enzyme marker.

IL-6 = IL-6 secretion in LPS-stimulated RAW264.7 macrophages (ELISA); format: cell-based, murine; details: LPS (0.5 μg/mL)-stimulated RAW264.7 cells, 5, 20, 40 μM, 24 h
Method: To elucidate the anti-inflammatory mechanisms underlying 3g and 3k, we conducted a comprehensive investigation into their impact on the secretion of pro-inflammatory cytokines, employing an LPS-stimulated RAW264.7 macrophage model. TNF-α and IL-6, which serve as pivotal mediators in the pathogenesis of ALI, are primarily secreted by activated alveolar macrophages, neutrophils, and lung structural cells. […] In this study, RAW264.7 cells were treated with LPS (0.5 μg mL^−1) and varying concentrations of 3g or 3k for 24 hours. […] This mechanistic understanding provides robust support for the therapeutic potential of the novel diaryl ketone scaffold in the ALI management.
Fig. 2 Compounds 3g and 3k inhibited the cytokine production of RAW264.7 cells stimulated by LPS. […] The levels of IL-6 (A) and TNF-α (B) in the culture medium were measured by ELISA kits. Data are expressed as mean ± SEM for each group of independent experiments (n = 3); *p < 0.05; **p < 0.01; ***p < 0.001 vs. model group.
Based on the initial screening results, compounds 3g and 3k were selected for further experimentation. […] The levels of TNF-α and IL-6 released into the macrophage supernatant were quantified using ELISA kits sourced from Elabscience (Wuhan, China), according to the manufacturer's guidelines.

NF-κB p65 = assay: Immunofluorescence of NF-κB p65 in lung tissues; format: in vivo, C57BL/6 mice; details: SWCNT-induced ALI mice, 50 mg/kg once a day for 3 d
From the text: To elucidate the mechanism underlying the modulation of NF-κB pathway, we employed immunofluorescence techniques to scrutinize the spatiotemporal dynamics of NF-κB p65 within lung tissues. The canonical NF-κB signaling cascade involves IκB kinase (IKK)-mediated phosphorylation of IκBα, triggering its ubiquitination and proteasomal degradation. This process releases the NF-κB p65/p50 heterodimer, enabling its nuclear translocation and subsequent initiation of pro-inflammatory mediator transcription.[35,36] […] This finding implies a pharmacological activity that is contingent upon the structural characteristics of the compounds.
Based on the results of the previous in vitro experiments, 3g and 3k were chosen for animal experiments. 3g was dissolved in 5% DMSO and 3k was dissolved in 0.5% sodium carboxymethyl cellulose (CMC-Na). Male C57BL/6 mice were randomly divided into four groups of ten animals each: CON, single-walled carbon nanotubes (SWCNT) model, 3k (50 mg kg^−1) + SWCNT, 3g (50 mg kg^−1) + SWCNT. The SWCNT model group was administered a one-time tracheal drip of 50 μL of SWCNT suspension containing 40 μg of SWCNT (approximately 1.86 mg per kg body weight) per mouse to model ALI. […]
(§2) Mouse lung tissues were isolated and stored in a 4% paraformaldehyde solution. […] Representative images of each sample were acquired (magnification ×200) and analyzed using the ImageJ software. […]

SWCNT-induced ALI mice [2] = assay: Complete blood count in SWCNT-induced ALI mice; format: in vivo, C57BL/6 mice; details: 50 mg/kg once a day for 3 d, p < 0.01 vs. model
From the text: To explore the immunomodulatory effects of 3g and 3k, we conducted an analysis of systemic inflammatory responses in mice with SWCNT-induced ALI by employing hematological profiling. During inflammatory responses, immune activation induces cytokine production and modulates leukocyte trafficking dynamics. […] Mechanistically, the proliferation of LY is initiated in response to inflammatory stimuli as a means to combat infection. […] Consequently, this leads to a diminished requirement for the continuous mobilization of LY. These findings highlight the anti-inflammatory and immunomodulatory properties of pyrrolo[2,1-a]isoquinoline derivatives in mitigating SWCNT-induced pulmonary injury.
Based on the results of the previous in vitro experiments, 3g and 3k were chosen for animal experiments. 3g was dissolved in 5% DMSO and 3k was dissolved in 0.5% sodium carboxymethyl cellulose (CMC-Na). Male C57BL/6 mice were randomly divided into four groups of ten animals each: CON, single-walled carbon nanotubes (SWCNT) model, 3k (50 mg kg^−1) + SWCNT, 3g (50 mg kg^−1) + SWCNT. […]
Blood samples were extracted from the eyeballs of each experimental mouse cohort to obtain comprehensive whole blood specimens. Complete blood count (CBC) and differential leukocyte count (DLC) were determined using an automatic blood cell analyzer (Mindray CAL 6000, China).

SWCNT-induced ALI mice [3] = assay: Lung histopathology (H&E) in SWCNT-induced ALI mice; format: in vivo, C57BL/6 mice; details: 50 mg/kg once a day for 3 d
Method: To evaluate the histopathological impact of 3g and 3k on SWCNT-induced ALI, hematoxylin and eosin (H&E) staining was performed on murine lung tissues.
as §1, §2

Structure (SMILES): O=C(c1ccc(F)cc1)c1ccc2c3ccccc3ccn12 [3g]
- TNF-α level in BALF (TNF-α): effectively suppressed the release of TNF-α
- viability at 24 h, 50 µM [1]: 86.5 ± 1.2%
- IL-6 secretion (IL-6): suppressed cytokine secretion in a dose-dependent manner
- p65 fluorescence intensity and nuclear translocation in lung tissue (NF-κB p65; 50 mg/kg): reduced fluorescence intensity and suppressed nuclear translocation of p65; also recorded: significantly enhanced efficacy in inhibiting he nuclear translocation of p65
- Circulating lymphocyte (LY) count (SWCNT-induced ALI mice [2]): significantly reduced circulating LY populations
- Histopathological lung changes (H&E) (SWCNT-induced ALI mice [3]; 50 mg/kg): significantly ameliorated these histopathological features; also recorded: superior efficacy in mitigating structural damage and neutrophil infiltration compared to 3k

Structure (SMILES): Cc1ccccc1C(=O)c1ccc2c3ccccc3ccn12 [3k]
- TNF-α level in BALF (TNF-α): effectively suppressed the release of TNF-α
- viability at 24 h, 50 µM [1]: 98.8 ± 4.7%
- IL-6 secretion (IL-6): suppressed cytokine secretion in a dose-dependent manner
- p65 fluorescence intensity and nuclear translocation in lung tissue (NF-κB p65): reduced fluorescence intensity and suppressed nuclear translocation of p65
- Circulating lymphocyte (LY) count (SWCNT-induced ALI mice [2]): significantly reduced circulating LY populations
- Histopathological lung changes (H&E) (SWCNT-induced ALI mice [3]): significantly ameliorated these histopathological features
